# Source: patent US20200078404A1, “COMBINATION OF A CELL THERAPY AND AN IMMUNOMODULATORY COMPOUND” (Juno Therapeutics, Inc., priority 2017, published 2020)
# Experiments:
# [1] = tested on: anti-CD19 CAR-expressing T cells; assay: Cytokine production of anti-CD19 CAR-expressing T cells incubated with K562.CD19 target cells; assay type: cell-based, human
# [2] = tested on: anti-CD19 CAR-expressing T cells; assay: Serial stimulation with K562.CD19: expansion (cell doublings); assay type: cell-based, human
# Description: (§1) Every 3-4 days (start of each new round), the cells were counted.
# Ikaros = assay: Intracellular Ikaros in anti-CD19 CAR-expressing T cells (flow cytometry); assay type: cell-based, human
# Protocol: Cells of the enriched CD4+ and CD8+ compositions were separately activated with anti-CD3/anti-CD28 beads and subjected to lentiviral transduction with a vector encoding an anti-CD19 CAR. […] Transduced populations then were separately incubated in the presence of stimulating reagents for cell expansion.
# [3] = tested on: anti-CD19 CAR-expressing T cells; assay: T cell surface markers of anti-CD19 CAR-expressing T cells incubated with K562.CD19; assay type: cell-based, human
# [4] = tested on: anti-CD19 CAR-expressing T cells; assay: Surface markers after anti-idiotypic antibody stimulation; assay type: cell-based, human
# Description: CAR-expressing T cells were stained for CD3, CD4, CD8 and the surrogate marker for CAR expression, and also for the following markers: CD25, PD-1, and CD69.
# K562.CD19 target cells [5] = assay: Serial stimulation with K562.CD19: cytolytic function at day 24; assay type: cell-based, human; conditions: day 24 after serial stimulation
# Description: as §1
# [6] = tested on: anti-CD19 CAR-expressing T cells; assay: Cytokine production after anti-idiotypic antibody stimulation; conditions: anti-idiotypic antibody 0.3-30 μg/ml, 24 hours; Compound 1 100, 1000 nM; lenalidomide 500, 5000 nM
# [7] = tested on: Raji lymphoma tumor cells; assay: Raji lymphoma xenograft model, anti-CD19 CAR-expressing cells with Compound 1; assay type: in vivo, mouse; conditions: Compound 1 0.3 mg/kg i.p. daily, Concurrent and Delayed groups, combined with anti-CD19 CAR-expressing cells, vs CAR-expressing cells alone
# Protocol: The anti-tumor efficacy of CAR-expressing T cells in combination with Compound 1 was assessed by monitoring tumors in a tumor xenograft model. […] T cell compositions were generated from three different donors.
# NOD.Cg.Prkdc^scidIL2rg^tm1Wjl/SzJ (NSG) mice were injected intravenously (i.v.) with 0.5×10^6 Raji lymphoma tumor cells (an immortalized human B lymphocyte tumor cell line that expresses CD19) that were transfected with firefly luciferase (Raji-ffluc). Tumor engraftment was allowed to occur for 6 days and verified using bioluminescence imaging. On Day 7, mice either received no treatment, or a single intravenous (i.v.) injection of anti-CD19 CAR-expressing cells at a low dose (0.5×10^6 cells) or a high dose (1.0×10^6 cells). […] Tumor burden was assessed by bioluminescence every 10 days. For bioluminescence imaging, mice received intraperitoneal (i.p.) injections of luciferin substrate (CaliperLife Sciences, Hopkinton, Mass.) resuspended in PBS (15 μg/g body weight). The average radiance (p/s/cm^2/sr) was determined.
# [8] = tested on: anti-CD19 CAR-expressing T cells; assay: Serial stimulation with K562.CD19: surface markers; assay type: cell-based, human
# Protocol: as §1
# Expression of select surface markers was assessed on cells at day 4 (i.e., 4 days after the first stimulation) and day 28 (i.e., 4 days after the seventh stimulation). Specifically, harvested cells were analyzed by flow cytometry for CD3, CD4, CD8 and the surrogate marker for CAR expression, and also for the following surface markers: CD69, CD107a, PD-1, CD25, CD62L, CCR7, CD45RO, CD27, and LAG3.
# K562.CD19 target cells [9] = assay: Cytolytic function of anti-CD19 CAR-expressing T cells against K562.CD19 target cells; assay type: cell-based, human
# Protocol: K562.CD19 target cells were transduced with NucLight Red to permit their tracking by microscopy. Cytolytic activity was assessed by measuring the loss of viable target cells over a period of five days, as determined by red fluorescent signal (using the IncuCyte® Live Cell Analysis System, Essen Bioscience).
compound,measurement,setting,value
Cc1nc2cccc(N)c2c(=O)n1C1CCC(=O)NC1=O (stereo not drawn) [Compound 1],cytokine production compared to lenalidomide at equivalent concentrations,[1],greater cytokine production across multiple conditions
same,"cytokine production (IFN-γ, IL-2, TNF-α)","[1]; concentration-dependent, E:T 5:1 and 2.5:1, 24 hours, vs vehicle",increased
same,cell counts of anti-CD19 CAR-expressing T cells,"[2]; 10 nM and 100 nM Compound 1, after 24 days",higher than the untreated controls for two out of three donors
same,number of doublings of CAR+ cells,"[2]; 500 nM Compound 1, rounds after 3-4 rounds of stimulation",lower than the untreated control groups
same,reduction in Ikaros expression compared to lenalidomide,Ikaros,greater reduction in Ikaros expression
same,intracellular Ikaros expression,Ikaros; CD4+ and CD8+ anti-CD19 CAR-expressing T cells,concentration-dependent decrease in intracellular Ikaros expression
same,expression of CD27,[3]; all donors and E:T ratios,downregulated in a concentration-dependent manner
same,expression of CD45RO,[3]; all donors and E:T ratios,increased
same,expression of CD69 and LAG3,[3]; cells derived from donor 3,increased in a concentration-dependent manner
same,surface markers CD25 and CD69,"[4]; CD4+ and CD8+ CAR-expressing T cells, day 4, some donors",increase in surface markers CD25 and CD69
same,expression of PD-1,"[4]; day 4, unchanged or decreased in the other donors",increased in the presence of Compound 1 or lenalidomide in cells generated from at least one donor
same,cytolytic activity of anti-CD19 CAR-expressing T cells,K562.CD19 target cells [5],increase the cytolytic activity
same,"IFN-γ, IL-2 and TNF-α production",[6],increased relative to the vehicle control
same,tumor burden and survival,[7],reduce tumor burden and improve survival data
same,expression of CD28,"[8]; CD4+ and CD8+ CAR-expressing T cells, day 28, three donors",decreased in a dose-dependent manner
same,PD-1 expression,"[8]; both E:T ratios, day 4 and day 28",downregulated to some degree in all donors
same,CD25 and LAG3 expression,[8]; day 4,upregulated across all three donors
same,CCR7 expression,[8]; day 28,generally decreased at day 28
same,cytolytic activity of anti-CD19 CAR-expressing cells,"K562.CD19 target cells [9]; 2.5:1 E:T ratio, some donors",slightly reduced cytolytic activity
same,cytolytic activity of anti-CD19 CAR-expressing T cells,"K562.CD19 target cells [9]; 5:1 E:T ratio, high concentrations, Donor 2, no effects with Donors 1 and 3",slight but consistent increase in cytolytic activity
same,cytolytic function of anti-CD19 CAR-expressing T cells,"K562.CD19 target cells [9]; five days, three donors",limited effect on cytolytic function
